{
  "source": "patent US5998362A",
  "about": "“Conjugates useful in the treatment of prostate cancer” (priority 1997, dated 1999)",
  "key": {"[1]": {"system": "LNCap prostate tumor cells", "experiment": "In vitro cytotoxicity of peptidyl derivatives of doxorubicin, Alamar Blue assay, LNCaP", "format": "cell-based", "procedure": "(§1) The cytotoxicities of the cleaveable oligopeptide-doxorubicin conjugates, prepared as described in Examples 3-6, against a line of cells which is known to be killed by unmodified doxorubicin was assessed with an Alamar Blue assay. Specifically, cell cultures of LNCap prostate tumor cells or DuPRO cells in 96 well plates was diluted with medium containing various concentrations of a given conjugate (final plate well volume of 200 μl). The cells were incubated for 3 days at 37° C., 20 μl of Alamar Blue is added to the assay well. The cells were further incubated and the assay plates were read on a EL-310 ELISA reader at the dual wavelengths of 570 and 600 nm at 4 and 7 hours after addition of Alamar Blue. Relative percentage viability at the various concentration of conjugate tested was then calculated versus control (no conjugate) cultures. If no salt is indicated, the free conjugate was tested."}, "free PSA": {"molecular_target": "free PSA (Homo sapiens, UniProt P07288)", "sequence (P07288 25-261)": "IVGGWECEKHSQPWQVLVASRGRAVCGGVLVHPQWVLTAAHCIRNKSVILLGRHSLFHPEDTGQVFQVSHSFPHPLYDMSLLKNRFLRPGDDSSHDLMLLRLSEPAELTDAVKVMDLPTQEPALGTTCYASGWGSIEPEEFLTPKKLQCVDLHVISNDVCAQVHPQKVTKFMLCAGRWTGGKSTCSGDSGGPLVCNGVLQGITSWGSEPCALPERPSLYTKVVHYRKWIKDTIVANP", "experiment": "Recognition of oligopeptide-doxorubicin conjugates by free PSA (time to 50% cleavage, HPLC)", "format": "biochemical", "parameters": "required for 50% cleavage of the noted oligopeptides with enzymatically active free PSA", "conditions": "Table 3, DOX conjugates", "procedure": "If no salt is indicated for the conjugate, the free conjugate was tested."}, "DuPRO cells": {"system": "DuPRO cells", "experiment": "In vitro cytotoxicity of peptidyl derivatives of doxorubicin, Alamar Blue assay, DuPRO", "format": "cell-based", "conditions": "3 days incubation, read-out: DuPRO cell kill EC 50 (μM), value in parentheses", "procedure": "as §1"}},
  "note": "Where a SMILES comes first, the peptide text is derived from it. [ ]: non-standard residue; d: D form. The star is where a group is joined. Doxorubicin(3'-N) = COc1cccc2c1C(=O)c1c(O)c3c(c(O)c1C2=O)C[C@@](O)(C(=O)CO)C[C@@H]3O[C@H]1C[C@H](N*)[C@H](O)[C@H](C)O1; Decanoyl(3,6,9-trioxa) = COCCOCCOCC(=O)*; hArg = N=C(N)NCCCC[C@H](N)C(=O)O; X4 = O=C([C@H](O)[C@@H](O)CO)*; Chg = N[C@H](C(=O)O)C1CCCCC1",
  "data": [
    {"molecule": "COCCOCCOCC(=O)N[C@@H](CCCCNC(=N)N)C(=O)N[C@H](C(=O)N[C@@H](CCC(N)=O)C(=O)N[C@@H](CO)C(=O)N[C@@H](CC(C)C)C(=O)N[C@H]1C[C@H](O[C@H]2C[C@](O)(C(=O)CO)Cc3c(O)c4c(c(O)c32)C(=O)c2c(OC)cccc2C4=O)O[C@@H](C)[C@H]1O)C1CCCCC1", "note": "[PEG(2)-hRChgQ-SL-DOX(3'), PEG(2)-hArgChgGln-SerLeu-DOX (3')] ({Decanoyl(3,6,9-trioxa)}-[hArg][Chg]QSL-{Doxorubicin(3'-N)})", "values": [
      {"measurement": "Solubility remark in the cell kill column (INSOLUBLE / PS)", "setting": "[1]; Table 4, DOX conjugates, abbreviation not defined", "value": "INSOLUBLE"}
    ]},
    {"molecule": "COc1cccc2c1C(=O)c1c(O)c3c(c(O)c1C2=O)C[C@@](O)(C(=O)CO)C[C@@H]3O[C@H]1C[C@H](NC(=O)[C@H](CC(C)C)NC(=O)[C@H](CO)NC(=O)[C@H](CCC(N)=O)NC(=O)[C@@H](NC(=O)[C@H](CCCCNC(=N)N)NC(=O)[C@H](O)[C@@H](O)CO)C2CCCCC2)[C@H](O)[C@H](C)O1", "note": "[(2R,3S) 2,3,4-trihydroxybutanoyl-hArgChgGln-SerLeu-DOX (3')] (X4-[hArg][Chg]QSL-{Doxorubicin(3'-N)})", "values": [
      {"measurement": "Substrate cleavage by York PSA at 4 HOUR", "setting": "free PSA", "value": 0, "unit": "%"}
    ]},
    {"molecule": "COCCOCCOCC(=O)N[C@@H](CCCCN)C(=O)N[C@@H](Cc1ccc(O)cc1)C(=O)N[C@@H](CCC(N)=O)C(=O)N[C@@H](CO)C(=O)N[C@@H](CO)C(=O)N[C@@H](CO)C(=O)N[C@@H](CC(C)C)C(=O)N[C@H]1C[C@H](O[C@H]2C[C@](O)(C(=O)CO)Cc3c(O)c4c(c(O)c32)C(=O)c2c(OC)cccc2C4=O)O[C@@H](C)[C@H]1O", "note": "[PEG(2)-KYQ-SSSL-DOX(3'), PEG(2)-LysTyrGln-SerSerSerLeu-DOX (3')] ({Decanoyl(3,6,9-trioxa)}-KYQSSSL-{Doxorubicin(3'-N)})", "values": [
      {"measurement": "Substrate cleavage by York PSA at 4 HOUR", "setting": "free PSA", "value": 20, "unit": "%"}
    ]},
    {"molecule": "N-[2-{2-(2-methoxyethoxy)ethoxy}acetyl]-Ser-Ser-Ser-Chg-Gln-Ser-Leu-Dox [PEG(2)-SSSChgQ-SL-DOX(3')]", "values": [
      {"measurement": "EC50", "setting": "[1]; LNCaP cells, 72 h (3 days) incubation, Alamar Blue, read-out: LNCaP Cell Kill in 72 HRS, {48 HRS} EC 50", "value": 10, "unit": "µM"},
      {"measurement": "EC50", "setting": "DuPRO cells", "value": "> 100", "unit": "µM"},
      {"measurement": "Time to 50% Substrate Cleavage by York PSA", "setting": "free PSA; buffer 50 mM Tris pH7.4, 140 mM NaCl, conjugate:PSA 100 to 1", "value": 60, "unit": "min"}
    ]}
  ]
}
